Assay results: paper PMC2965131, “Histopathology and biochemistry analysis of the interaction between sunitinib and paracetamol in mice” (BMC Pharmacology, 2010)
Where “and” joins values, the source holds several entries; their conditions need not be identical. Equal values may be shown once. Blank lines part the entries; values can stand above or below the molecule they belong to.

Columns and labels:
[1] = system: kidney tissue; assay: Histopathology assessment of kidney (H&E, semi-quantitative grading); format: in vivo; details: mice
Protocol: (§1) Animals were fasted overnight prior to dose administration and randomly assigned to each of the four experimental groups. Mice in group A (n = 6) were administered saline; mice in group B mice (n = 6) were administered paracetamol only, 500 mg/kg IP. Group C was further subdivided into five different dose-groups of sunitinib only treatment: 25, 50, 80, 100 and 140 mg/kg administered PO (n = 6 for each dose group). Finally, mice in group D were co-administered paracetamol (500 mg/kg IP) and sunitinib at different doses: 25, 50, 80, 100 and 140 mg/kg PO (n = 6 each dose group). A feeding needle was used to ensure the full administration of the dose. Paracetamol was administered 15 minutes before sunitinib and animals were sacrificed 4 hours post sunitinib administration by cervical dislocation. Blood was obtained via cardiac puncture, allowed to clot, centrifuged (1500 rpm, 10 min, room temperature) and stored at -20°C until analysis. The liver and kidneys were excised from the mice and processed for histology assessment.
(§2) Processing of tissue samples for histology assessment followed established procedures. In brief, the tissue samples were rinsed with 0.9% saline solution, fixed in 10% formalin. Then the diagonal section of the liver, the transverse section of the kidneys and heart and the horizontal section of the spleen and the posterior section of the brain were obtained and processed (Leica TP1020, Japan) as follows: (1) 10% neutral buffered formalin for 1 h, twice; (2) 70% alcohol for 1.5 h; (3) 80% alcohol for 1.5 h; (4) 90% alcohol for 1.5 h; (5) absolute alcohol for 1.5 h, twice; (6) xylene for 1.5 h, twice; (7) in molten wax at 65°C for 2.5 h two changes. The processed tissues were embedded in paraffin and sectioned at 4 microns thickness, placed on frosted glass slides and dried on a 70°C hot plate for 30 minutes.
(§3) The tissues were stained using the hematoxylin and eosin (H&E) stains. The sections were dewaxed in two changes of xylene (3 min each), hydrated in two changes of 100% ethanol, followed by 90% ethanol and 70% ethanol, for 3 min each, rinsed with water (3 min) and stained. The stained tissues were dehydrated with 70% ethanol followed by 90% ethanol, placed in two changes of 100% ethanol for 3 minutes each and cleaned with two changes of xylene (3 min each).
(§4) Histopathology changes were observed and grouped based on two main criteria: vascular changes including vessel congestion, extravasation of red blood cells and hematoma formation; and necrotic changes including necrosis, fibrosis, nuclear changes, abscesses and cell regeneration. The morphological changes were assessed semi-quantitatively, blind by two independent assessors and graded as follows: No change - 0 (no distinguishable change, 0%); mild change - 1 (initiation of changes, up to 30%); moderate change - 2 (patent changes, 31-60%); severe change - 3 (wide spread changes, 61-100%). Then, using SPSS 16.0, the Mann-Whitney test was used for pair-wise comparison between the sunitinib alone group and the combination group at each dose. The differences were considered significance if p < 0.05.

[2] = system: brain tissue; assay: Histopathology assessment of brain (H&E, semi-quantitative grading); format: in vivo; details: mice; for Brain histopathological changes: 4 h
Protocol: as §1
Processing of tissue samples for histology assessment followed established procedures. In brief, the tissue samples were rinsed with 0.9% saline solution, fixed in 10% formalin. […]
as §4, with “Then, using SPSS 16.0, the Mann-Whitney test was used for pair-wise comparison between the sunitinib alone group and the combination group at each dose. The differences were considered significance if p < 0.05.” left out

[3] = system: P450; parameters: method as in PMID 20020268; details: cited from earlier work
[4] = system: Male ICR mice; assay: Serum BUN and creatinine (renal function biomarkers); format: in vivo; details: for BUN serum concentration / Creatinine serum concentration: mean ± SE, n = 6
Protocol: as §1
(§5) Biochemistry analysis of serum ALT and AST was performed using standard assay kits (BiooScientific Corp., USA). The concentration in duplicate samples was measured at 340 nm using a microplate reader (Tecan Infinite F200). Similarly, blood urea nitrogen (BUN) and creatinine concentration were measured using specific assay kits (BioAssay Systems, USA) and measured at 490 nm (duplicate samples) in a Dynex OpsysMR microplate reader.
(§6) The effect of the drug combination on the biomarker levels compared to sunitinib alone treatment was assessed with the aid of SPSS 16.0 with the significance level set at p < 0.05. Independent-samples t-test (for samples normally distributed based on Shapiro-Wilk test) for pair-wise comparison was performed at each dose of the sunitinib alone and sunitinib and paracetamol combination groups. Samples that were not normally distributed were tested using the Mann Whitney test.

[5] = system: liver tissue; assay: Histopathology assessment of liver (H&E, semi-quantitative grading); format: in vivo; details: mice
Protocol: as §1, §2
(§7) The tissues were stained using the hematoxylin and eosin (H&E) stains. The sections were dewaxed in two changes of xylene (3 min each), hydrated in two changes of 100% ethanol, followed by 90% ethanol and 70% ethanol, for 3 min each, rinsed with water (3 min) and stained. […]
as §4, with “Then, using SPSS 16.0, the Mann-Whitney test was used for pair-wise comparison between the sunitinib alone group and the combination group at each dose. The differences were considered significance if p < 0.05.” left out

[6] = system: spleen; assay: Histopathology assessment of spleen (H&E, semi-quantitative grading); format: in vivo; details: mice; for Spleen inflammatory changes: at any dose; for Spleen vascular changes: study doses of each treatment group
Protocol: as §1, §2, §7
as §4, with “Then, using SPSS 16.0, the Mann-Whitney test was used for pair-wise comparison between the sunitinib alone group and the combination group at each dose. The differences were considered significance if p < 0.05.” left out

[7] = system: heart tissue; assay: Histopathology assessment of heart (H&E, semi-quantitative grading); format: in vivo; details: mice
Protocol: as §1, §2, §3, §4

[8] = system: Male ICR mice; assay: Serum ALT and AST (liver function biomarkers); format: in vivo; details: for ALT serum concentration / AST serum concentration: mean ± SE
Protocol: as §1, §5, §6

[9] = parameters: method as in PMID 16520665; details: mice; cited from earlier work
[10] = system: plasma proteins; details: humans; cited from earlier work
[11] = parameters: method as in earlier work; details: monkeys; up; cited from earlier work
[12] = humans; cited from earlier work
[13] = system: mouse plasma proteins; parameters: method as in PMID 19169880; details: fraction unbound independent of concentration; cited from earlier work
[14] = parameters: method as in PMID 19169880; details: mice, cited from earlier work
[15] = paracetamol 500 mg/kg IP alone, n = 6
[16] = paracetamol 500 mg/kg IP alone, n = 6, listed as paracetamol
[17] = sunitinib 25 mg/kg PO alone, 4 h post dose
[18] = sunitinib 50 mg/kg PO alone, 4 h post dose
[19] = sunitinib 80 mg/kg PO alone, 4 h post dose
[20] = sunitinib 100 mg/kg PO alone, 4 h post dose
[21] = sunitinib 140 mg/kg PO alone, 4 h post dose
[22] = sunitinib alone 25-140 mg/kg PO, 4 h post dose
[23] = increasing doses of sunitinib alone (25-140 mg/kg PO), 4 h
[24] = sunitinib 25 mg/kg PO alone, 4 h post dose, n = 6
[25] = sunitinib 50 mg/kg PO alone, 4 h post dose, n = 6
[26] = sunitinib 80 mg/kg PO alone, 4 h post dose, n = 6
[27] = sunitinib 100 mg/kg PO alone, 4 h post dose, n = 6
[28] = sunitinib 140 mg/kg PO alone, 4 h post dose, n = 6

Brain vascular or inflammatory changes ([2]; paracetamol 500 mg/kg IP alone): no vascular or inflammatory changes
Increase of creatinine serum concentration vs baseline control ([4]; paracetamol 500 mg/kg IP alone): 21%
BUN serum concentration ([4]; paracetamol 500 mg/kg IP alone): 33.81 ± 5.68 mg/dL
Creatinine serum concentration ([4]; paracetamol 500 mg/kg IP alone): 0.644 ± 0.110 mg/dL
Spleen inflammatory changes [6]: no inflammatory changes
Spleen vascular changes [6]: did not reveal any vascular changes
SMILES: CC(=O)Nc1ccc(O)cc1 [PCM, paracetamol]
Renal inflammatory changes (grade) ([1]; paracetamol 500 mg/kg IP alone): mild (mild change - 1 (initiation of changes, up to 30%))
Renal vascular changes (grade) ([1]; paracetamol 500 mg/kg IP alone): mild (mild change - 1 (initiation of changes, up to 30%))
Amount undergoing P450 mediated oxidation to NAPQI [3]: ~ 5%
Hepatic inflammatory changes (grade) ([5]; paracetamol 500 mg/kg IP alone): moderate (moderate change - 2 (patent changes, 31-60%))
Hepatic vascular changes (grade) ([5]; paracetamol 500 mg/kg IP alone): mild (mild change - 1 (initiation of changes, up to 30%))
Heart inflammatory changes (grade) ([7]; paracetamol 500 mg/kg IP alone): mild (mild change - 1 (initiation of changes, up to 30%))
Heart vascular congestion (grade) ([7]; paracetamol 500 mg/kg IP alone): mild (mild change - 1 (initiation of changes, up to 30%))
Mean serum AST relative to vehicle control group ([8]; paracetamol 500 mg/kg IP alone): 2 fold
ALT serum concentration [8, 15]: 249.6 ± 222.7 U/L
AST serum concentration [8, 15]: 377.1 ± 173.6 U/L
ALT serum concentration [8, 16]: 249.60 ± 222.72 U/L
AST serum concentration [8, 16]: 377.09 ± 173.55 U/L

SMILES: CCNCCNC(=O)c1c(C)[nH]c(/C=C2\C(=O)Nc3ccc(F)cc32)c1C [SU12662]
Brain penetration, times the plasma concentration [9]: 4-7 times
Bound to plasma proteins [10]: 90%
Brain penetration, percent of plasma concentrations [11]: 30%-40
Half-life [12]: 80 to 110 h
Bound to mouse plasma proteins [13]: 95%

Renal inflammatory changes ([1]; sunitinib alone PO, doses below 140 mg/kg, 4 h): no signs of inflammatory changes
BUN serum concentration [4, 17]: 20.08 ± 2.54 mg/dL
Creatinine serum concentration [4, 17]: 0.535 ± 0.033 mg/dL
BUN serum concentration [4, 18]: 17.5 ± 1.25 mg/dL
Creatinine serum concentration [4, 18]: 0.594 ± 0.082 mg/dL
BUN serum concentration [4, 19]: 19.71 ± 0.58 mg/dL
Creatinine serum concentration [4, 19]: 0.528 ± 0.064 mg/dL
BUN serum concentration [4, 20]: 17.62 ± 0.94 mg/dL
Creatinine serum concentration [4, 20]: 0.533 ± 0.060 mg/dL
BUN serum concentration [4, 21]: 26.68 ± 6.05 mg/dL
Creatinine serum concentration [4, 21]: 0.559 ± 0.051 mg/dL
BUN concentrations, range of group means [4, 22]: 17.50 to 26.68 mg/dL
Creatinine serum concentration, range of group means [4, 22]: 0.528 to 0.594 mg/dL
Spleen inflammatory changes [6]: no inflammatory changes
Spleen vascular changes [6]: did not reveal any vascular changes
Heart inflammatory changes ([7]; sunitinib alone PO, 4 h): no inflammatory changes
SMILES: CCN(CC)CCNC(=O)c1c(C)[nH]c(/C=C2\C(=O)Nc3ccc(F)cc32)c1C [Sunitinib]
Renal inflammatory changes ([1]; sunitinib alone 140 mg/kg PO, 4 h): some tubular necrosis
Renal vascular changes (grade) ([1]; sunitinib alone 25-140 mg/kg PO, 4 h): mild (mild change - 1 (initiation of changes, up to 30%))
Brain histopathological changes ([2]; sunitinib alone PO at high doses): toxicity decreased
Brain histopathological changes ([2]; sunitinib alone PO at low doses (p < 0.05 at 25 and 80 mg/kg)): Some congestion of vessels at the 'cortical junction' as well as evidence of liquefactive necrosis
Brain penetration, times the plasma concentration [9]: 4-7 times
Hepatic inflammatory changes (grade) [5, 23]: mild (mild change - 1 (initiation of changes, up to 30%))
Hepatic vascular changes (grade) [5, 23]: mild (mild change - 1 (initiation of changes, up to 30%))
Cardiotoxicity (damage grade) ([7]; 25 - 80 mg/kg doses of sunitinib, reduction in relation to the paracetamol group): no damage to moderate damage
Heart vascular congestion (grade) ([7]; sunitinib alone PO, 4 h): mild (mild change - 1 (initiation of changes, up to 30%))
Bound to albumin [10]: 95%
Brain penetration, percent of plasma concentrations [11]: 30%-40
ALT serum concentration [8, 24]: 61.40 ± 26.57 U/L
AST serum concentration [8, 24]: 204.6 ± 50.3 U/L
ALT serum concentration [8, 25]: 36.75 ± 12.15 U/L
AST serum concentration [8, 25]: 204.4 ± 49.4 U/L
ALT serum concentration [8, 26]: 75.02 ± 20.37 U/L
AST serum concentration [8, 26]: 290.3 ± 77.7 U/L
ALT serum concentration [8, 27]: 47.61 ± 24.50 U/L
AST serum concentration [8, 27]: 243.0 ± 66.4 U/L
ALT serum concentration [8, 28]: 50.89 ± 18.90 U/L
AST serum concentration [8, 28]: 239.5 ± 65.9 U/L
ALT serum concentration, range of group means [8, 22]: 36.75-75.02 U/L
AST serum concentration, range of group means [8, 22]: 204.4-290.3 U/L and 204.64 - 290.28 U/L
Elimination half-life ([14]; after oral administration): 1.5 to 7.6 h
Time within which maximum concentration is achieved [14]: 0.5 to 6 h
Dose eliminated in the faeces [12]: 61%
Half-life [12]: 40 to 60 h
Recovered unchanged in urine [12]: around 16%
Time after dosing at which maximum plasma concentration is reached [12]: 6 to 12 h
Bound to mouse plasma proteins [13]: 91%
